Measurements from US20090269406A1, “Therapeutic uses of biocompatible biogel compositions” (priority 2008, published 2009).
Peptide text beside a SMILES is read from it. * marks the point of attachment. Dansyl = CN(C)c1cccc2c(S(=O)(=O)*)cccc12

Assay: Effect of heparin-binding peptides on cellular viability (CellTiter 96 AQueous colorimetric metabolic assay)
Conditions: mouse, 3T3 fibroblasts
Experimental: 3T3 fibroblasts were incubated with various doses of W-PBD1 () and dG-PBD1 (▪) peptide (n=3). Viability was measured using a colorimetric metabolic assay based on the reduction of a tetrazolium salt into a formazan product.
In one example to show toxicity of two heparin binding peptides, 3T3 fibroblasts were treated with various concentrations of two different heparin binding peptides. Cell viability was assessed using the CellTiter 96® AQueous reagent (Promega, Madison, Wis.) after 1 hour at 37° C. in a humidified incubator with 5% CO2, following the manufacturer's protocol, incorporated by reference herein. Briefly, 3T3 fibroblasts were cultured at 37° C. in a humidified incubator with 5% CO2 using Dulbecco's modified Eagle Medium (DMEM) containing 10% fetal bovine serume (FBS), pen/strep, and 2 mM glutamine (Invitrogen). Serial dilutions of dG-PGB1 and W-PBD-1 using PBS as the diluent, and 75 μl of the dilutions were transferred in triplicate into the wells of a 96-well microtiter plate. […] Finally, the absorbance at 490 mm was measured with a microplate spectrophotometer. […] The amount of viable cells was determined by subtracting the absorbance readings of media containing blank wells from every other well and comparing the ratio of the absorbance reading for each sample with that of the positive control.

In the case of `CC(C)C[C@H](NC(=O)[C@H](CCCCN)NC(=O)[C@H](C)NC(=O)[C@H](Cc1ccccc1)NC(=O)[C@H](C)NC(=O)[C@H](CCCCN)NC(=O)[C@@H](N)Cc1c[nH]c2ccccc12)C(=O)N[C@@H](C)C(=O)N[C@@H](C)C(=O)N[C@@H](CCCNC(=N)N)C(=O)N[C@@H](CC(C)C)C(=O)N[C@@H](Cc1ccc(O)cc1)C(=O)N[C@@H](CCCNC(=N)N)C(=O)N[C@@H](CCCCN)C(=O)N[C@@H](C)C(=O)NCC(=O)N[C@@H](CS)C(=O)O` [W-PBD1, WKAFAKLAARLYRKAGC] (H-WKAFAKLAARLYRKAGC-OH; N-terminus and C-terminus assumed), the CC50 at 1 h is reported as 58.1 ± 7.3 µM.
`CC(C)C[C@H](NC(=O)[C@H](CCCCN)NC(=O)[C@H](C)NC(=O)[C@H](Cc1ccccc1)NC(=O)[C@H](C)NC(=O)[C@H](CCCCN)NC(=O)CNS(=O)(=O)c1cccc2c(N(C)C)cccc12)C(=O)N[C@@H](C)C(=O)N[C@@H](C)C(=O)N[C@@H](CCCNC(=N)N)C(=O)N[C@@H](CC(C)C)C(=O)N[C@@H](Cc1ccc(O)cc1)C(=O)N[C@@H](CCCNC(=N)N)C(=O)N[C@@H](CCCCN)C(=O)N[C@@H](C)C(=O)NCC(=O)N[C@@H](CS)C(=O)O` [dG-PBD1, dansyl-GKAFAKLAARLYRKAGC] (Dansyl-GKAFAKLAARLYRKAGC-OH) showed a CC50 at 1 h of 19.3 ± 1.1 µM.
